Legend:
Aedes aegypti [1] = test: in vitro Warm Body assay, substance applied on glass Petri dish on top of the warm body (deterrence and repellence); format: in vivo
Method: (§1) The controlling effect, repellence & spatial repellence, according to the present invention is determined by testing the Warm Body assay against the yellow fever mosquito, Aedes aegypti Rockefeller strain. […] Observations of controlling efficacy were made on host-seeking females of uniform age, 5 to 10 days old selected as mentioned in the publication mentioned hereinabove. Tested hungry females had access to 10% sugar solution but were not blood-fed. Further information is provided in the accompanying examples.
(§2) The published protocol has been adapted in not manually counting the landing mosquitoes but automatically using an automatic counting software, the switch from Anopheles gambiae to A. aegypti led to a decrease of mosquitoes’ number placed in the tested cage due to the size difference (i.e. 30 mosquitoes instead of 50) and to an increase of lighting as A. aegypti is a diurnal mosquitoes (i.e. 150 lux instead of 4 lux). Further information is provided in the accompanying examples.,
(§3) The controlling effect of the compositions according to the present invention was assessed using an adapted Warm Body assay as defined in Kröber T, Kessler S, Frei J, Bourquin M, Guerin PM. 2010. An in vitro assay for testing mosquito controlling compounds employing a warm body and carbon dioxide as a behavioral activator. J Am Mosq Control Assoc. 26:381-386. In this in-vitro assay the number of mosquito landing on a warm body, simulating an attractive host treated with the tested stimuli, was measured in order to assess the repellence effect.
as §2, with “to Aedes” for “to A.”, “lux).” for “lux). Further information is provided in the accompanying examples.,”
(§4) In addition, since the inventors were interested by assessing spatial repellence added or not to a deterrent effect, the substance was applied using two different technics. Whether, as in Kröber et al. (2010), both deterrent and repellent effect were investigated (i.e. similar effect than most body care applications such as lotion) and the substances was applied on a sandblasted glass Petri dish placed on top of the warm body. Whether only the spatial repellence was investigated (i.e. similar effect than most home care applications such as liquid electric dispenser) and the substance was introduced in the cage space thanks to a forced evaporation system as described in Chappuis C J-F, Niclass Y, Vuilleumier C, Starkenmann C. 2015. Quantitative Headspace Analysis of Selected Odorants from Latrines in Africa and India. Environ. Sci. Technol. 49:6134-6140.
(§5) As stated in Kröber et al. (2010), selected 10-12 days old hungry females, that had ad libitum access to 10% sugar solution but were not blood-fed, were selected for the assay.
On the sandblasted glass Petri dish covering the warm body (28.3 cm^2), 100 µL of the substances diluted at different concentrations in ethanol was applied. The number of mosquito landing on the warm body was counted for each stimuli, N,N-diethyl-3-methylbenzamide (DEET) and ethyl 3-[acetyl(butyl)amino]propanoate (IR3535) being used as benchmarks and pure ethanol as control.

Aedes aegypti [2] = test: in vitro Warm Body assay, substance introduced in the cage air by forced evaporation (spatial repellence); format: in vivo
Method: as §1, §2, §3
as §2, with “to Aedes” for “to A.”, “lux).” for “lux). Further information is provided in the accompanying examples.,”
as §4, §5
The forced evaporation system allows to fill the volume of the cage with stimuli tested, (2-methyl-4-oxo-3-prop-2-ynylcyclopent-2-en-1-yl) 2,2-dimethyl-3-(2-methylprop-1-enyl)cyclopropane-1-carboxylate (prallethrin) and N,N-diethyl-3-methylbenzamide (DEET) being used as benchmarks. In order to limit potential dead volumes in the cage, five flushes of the cage were made before starting the 2 minutes test during which the number of mosquito landings was counted.

[3] = 0.04% in ethanol, ethanol control 67.0±8.8 landings
[4] = 1% in ethanol, ethanol control 67.0±8.8 landings
[5] = […] in ethanol, ethanol control 67.0±8.8 landings
[6] = 0.0017 µg/L air, without substance 54.1±4.9
[7] = 0.017 µg/L air, without substance 54.1±4.9
[8] = 0.17 µg/L air, without substance 54.1±4.9
[9] = 1.7 µg/L air, without substance 54.1±4.9
[10] = 17 µg/L air, without substance 54.1±4.9
[11] = 0.04% in ethanol, ethanol control 67.1±9.1 landings
[12] = 1% in ethanol, ethanol control 67.1±9.1 landings
[13] = […] in ethanol, ethanol control 67.1±9.1 landings
[14] = 0.0017 µg/L air, without substance 56.0±3.6
[15] = 0.017 µg/L air, without substance 56.0±3.6
[16] = 0.17 µg/L air, without substance 56.0±3.6
[17] = 1.7 µg/L air, without substance 56.0±3.6
[18] = 17 µg/L air, without substance 56.0±3.6
[19] = 0.0017 µg/L air, without substance 54.7±3.2
[20] = 0.017 µg/L air, without substance 54.7±3.2
[21] = 0.17 µg/L air, without substance 54.7±3.2
[22] = 1.7 µg/L air, without substance 54.7±3.2
[23] = 17 µg/L air, without substance 54.7±3.2

Structure (SMILES)	number of mosquitoes landing within 2 minutes on the warm body (Aedes aegypti [1]; [3])	number of mosquitoes landing within 2 minutes on the warm body (Aedes aegypti [1]; [4])	number of mosquitoes landing within 2 minutes on the warm body (Aedes aegypti [1]; [5])	number of mosquitoes landing within 2 minutes on the warm body, air in the cage saturated with stimulus (Aedes aegypti [2]; [6])	number of mosquitoes landing within 2 minutes on the warm body, air in the cage saturated with stimulus (Aedes aegypti [2]; [7])	number of mosquitoes landing within 2 minutes on the warm body, air in the cage saturated with stimulus (Aedes aegypti [2]; [8])	number of mosquitoes landing within 2 minutes on the warm body, air in the cage saturated with stimulus (Aedes aegypti [2]; [9])	number of mosquitoes landing within 2 minutes on the warm body, air in the cage saturated with stimulus (Aedes aegypti [2]; [10])	number of mosquitoes landing within 2 minutes on the warm body (Aedes aegypti [1]; [11])	number of mosquitoes landing within 2 minutes on the warm body (Aedes aegypti [1]; [12])	number of mosquitoes landing within 2 minutes on the warm body (Aedes aegypti [1]; [13])	number of mosquitoes landing within 2 minutes on the warm body, air in the cage saturated with stimulus (Aedes aegypti [2]; [14])	number of mosquitoes landing within 2 minutes on the warm body, air in the cage saturated with stimulus (Aedes aegypti [2]; [15])	number of mosquitoes landing within 2 minutes on the warm body, air in the cage saturated with stimulus (Aedes aegypti [2]; [16])	number of mosquitoes landing within 2 minutes on the warm body, air in the cage saturated with stimulus (Aedes aegypti [2]; [17])	number of mosquitoes landing within 2 minutes on the warm body, air in the cage saturated with stimulus (Aedes aegypti [2]; [18])	other results
OCCc1ccccc1 [2-phenylethanol]	46.0	0.0	72.0	12.0	30.0	25.0	51.0	30.0	–	–	–	–	–	–	–	–	landing decrease (Aedes aegypti [2]; highest dose tested): 41%
CC(C)C(=O)OCCc1ccccc1 [2-phenylethyl 2-methylpropanoate]	55.0	2.0	90.0	–	–	–	–	–	–	–	–	–	–	–	–	–	–
CC(=O)OC1CC(C)CCC1C(C)C (stereo not drawn) [5-methyl-2-propan-2-ylcyclohexyl] acetate]	–	–	–	–	–	–	–	–	16.0	10.0	22.0	31.5	24.0	17.5	9.0	25.0	–
CCCCCCC1CCCC(=O)O1 (stereo not drawn) [6-hexyloxan-2-one]	–	–	–	–	–	–	–	–	13.0	5.0	74.0	31.0	28.0	4.0	–	5.0	landings in 2 minutes (Aedes aegypti [2]; dose of 0.17 µg/L of air): less than five
CC1=CC[C@@H]2[C@H](C1)C2(C)C [(1S,6R)-3,7,7-trimethylbicyclo[4.1.0]hept-3-ene]	55.0	8.0	59.0	–	–	–	–	–	–	–	–	–	–	–	–	–	–
COc1ccc(COC(C)=O)cc1 [(4-methoxyphenyl)methyl acetate]	27.0	9.0	59.0	18.0	26.5	34.5	28.0	–	–	–	–	–	–	–	–	–	–
COC(C)(C)[C@H]1CC=C(C)CC1 [(4R)-4-(2-methoxypropan-2-yl)-1-methylcyclohexene]	18.0	3.0	52.0	–	–	–	–	–	–	–	–	–	–	–	–	–	landings per minute (Aedes aegypti [1]; concentration of 0.04%): ~ 10 landings per minute
CCN(CC)C(=O)c1cccc(C)c1 [N,N-diethyl-3-methylbenzamide, reference compound]	5.1	2.6	44.9	35.0	28.0	24.0	1.5	3.0	5.1	2.6	44.9	35.0	28.0	24.0	1.5	3.0	number of mosquitoes landing within 2 minutes on the warm body (Aedes aegypti [1]; 0.04% in ethanol, ethanol control 59.3±6.9 landings): 5.1; number of mosquitoes landing within 2 minutes on the warm body (Aedes aegypti [1]; 1% in ethanol, ethanol control 59.3±6.9 landings): 2.6; number of mosquitoes landing within 2 minutes on the warm body (Aedes aegypti [1]; […] in ethanol, ethanol control 59.3±6.9 landings): 44.9; number of mosquitoes landing within 2 minutes on the warm body, air in the cage saturated with stimulus (Aedes aegypti [2]; [19]): 35.0; number of mosquitoes landing within 2 minutes on the warm body, air in the cage saturated with stimulus (Aedes aegypti [2]; [20]): 28.0; number of mosquitoes landing within 2 minutes on the warm body, air in the cage saturated with stimulus (Aedes aegypti [2]; [21]): 24.0; number of mosquitoes landing within 2 minutes on the warm body, air in the cage saturated with stimulus (Aedes aegypti [2]; [22]): 1.5; number of mosquitoes landing within 2 minutes on the warm body, air in the cage saturated with stimulus (Aedes aegypti [2]; [23]): 3.0
CCC=CCC1C(=O)CCC1CC(=O)OC (stereo not drawn) [methyl 2-(3-oxo-2-pent-2-enylcyclopentyl)acetate]	2.0	1.0	54.0	–	10.0	4.0	15.0	–	–	–	–	–	–	–	–	–	–
C#CCC1=C(C)C(OC(=O)C2C(C=C(C)C)C2(C)C)CC1=O (stereo not drawn) [prallethrin, (2-methyl-4-oxo-3-prop-2-ynylcyclopent-2-en-1-yl) 2,2-dimethyl-3-(2-methylprop-1-enyl)cyclopropane-1-carboxylate, reference compound]	–	–	–	77.0	66.0	15.5	3.0	1.0	–	–	–	77.0	66.0	15.5	3.0	1.0	number of mosquitoes landing within 2 minutes on the warm body, air in the cage saturated with stimulus (Aedes aegypti [2]; [19]): 77.0; number of mosquitoes landing within 2 minutes on the warm body, air in the cage saturated with stimulus (Aedes aegypti [2]; [20]): 66.0; number of mosquitoes landing within 2 minutes on the warm body, air in the cage saturated with stimulus (Aedes aegypti [2]; [21]): 15.5; number of mosquitoes landing within 2 minutes on the warm body, air in the cage saturated with stimulus (Aedes aegypti [2]; [22]): 3.0; number of mosquitoes landing within 2 minutes on the warm body, air in the cage saturated with stimulus (Aedes aegypti [2]; [23]): 1.0
